Consider four compounds from patent US7709488B2, “Imidazopyridine-derivatives as inducible no-synthase inhibitors” (Altana Pharma AG, priority 2003, dated 2010).

The target in data set [1] is human inducible NO-synthase (Homo sapiens, UniProt P35228). Kind of data set: Measurement of inducible NO-synthase activity ([3H]arginine conversion, crude cytosolic fraction). Format: biochemical. As to conditions: 0.1 μM arginine, 45 to 60 min at 37° C., pH 7.2; read-out: Inhibition of iNOS activity [measured as −logIC50 (mol/l)] (converted). As to the method:
Measurement of Inducible NO-Synthase Activity
The assay is performed in 96-well microtiter F-plates (Greiner, Frickenhausen, FRG) in a total volume of 100 μl in the presence of 100 nM calmodulin, 226 μM CaCl2, 477 μM MgCl2, 5 μM flavin-adenine-dinucleotide (FAD), 5 μM flavin mononucleotide (FMN), 0.1 mM NADPH, 7 mM glutathione, 10 μM BH4 and 100 mM HEPES pH 7.2. Arginine concentrations are 0.1 μM for enzyme inhibition experiments. 150000 dpm of [^3H]arginine are added to the assay mixture. Enzyme reaction is started by the addition of 4 μg of a crude cytosolic fraction containing human inducible NO-synthase and the reaction mixture is incubated for 45 to 60 min at 37° C. Enzyme reaction is stopped by adding 10 μl of 2M MES-buffer pH 5.0. 50 μl of the incubation mixture are transferred into a MADP N65 filtration microtiter plate (Millipore, Eschbom, FRG) containing already 50 μl of AG-50W-X8 cation exchange resin (Biorad, München, FRG). The resin in the Na loaded form is pre-equilibrated in water and 70 μl (corresponding to 50 μl dry beads) are pipetted under heavy stirring with a 8 channel pipette into the filtration plate. After pipetting 50 μl of the enzyme reaction mixture onto the filtration plates, the plates are placed on a filtration manifold (Porvair, Shepperton, UK) and the flow through is collected in Pico scintillation plates (Packard, Meriden, Conn.). The resin in the filtration plates is washed with 75 μl of water (1×50 μl and 1×25 μl) which is also collected in the same plate as the sample. The total flow through of 125 μl is mixed with 175 μl of Microscint-40 scintillation cocktail (Packard) and the scintillation plate is sealed with TopSeal P-foil (Packard). Scintillation plates are counted in a scintillation counter.
For the measurement of inducible NO-synthase-inhibiting potencies of compounds increasing concentrations of inhibitors were included into the incubation mixture. IC50-values were calculated from the percent inhibition at given concentrations by nonlinear least square fitting.
The inhibitory values determined for the compounds according to the invention follow from the following table A, in which the compound numbers correspond to the example numbers.

Regarding `COc1ccnc(CCc2nc3cc(-c4ccc(S(=O)(=O)NC5CCCCC5)cc4)cnc3[nH]2)c1` [Compound 20, N-Cyclohexyl-4-{2-[2-(4-methoxypyridin-2-yl)ethyl]-3H-imidazo-[4,5-b]pyridin-6-yl}benzenesulfonamid], the melting point fell in the range of 199 to 200 °C. Further, in data set [1], the IC50 was 0.0501 µM.

As to `COc1ccnc(CCc2nc3cc(-c4ccc(S(=O)(=O)N5CCC6(CC5)OCCO6)cc4)cnc3[nH]2)c1` [Compound 14, 6-[4-(1,4-dioxa-8-azaspiro[4.5]decan-8-yl-sulfonyl)-phenyl]-2-[2-(4-methoxy-pyridin-2-yl)ethyl]-3H-imidazo[4,5-b]pyridine], the melting point fell in the range of 121 to 122 °C. In data set [1], the IC50 is 0.0263 µM.

`COc1ccnc(CCc2nc3cc(-c4ccc(S(=O)(=O)N5CCN(Cc6ccccc6)CC5)cc4)cnc3[nH]2)c1` [Compound 2, 2-[2-(4-Methoxypyridin-2-yl)-ethyl]-6-[4-(4-benzylpiperazin-1-yl-sulfonyl)-phenyl]-3H-imidazo-[4,5-b]pyridine] displayed a melting point of 160 to 162 °C. The IC50 in data set [1] was 0.0355 µM.

Compound `COc1ccnc(CCc2nc3cc(-c4ccc(S(=O)(=O)N5CCN(c6ccc(C)cc6C)CC5)cc4)cnc3[nH]2)c1` [Compound 6, 6-{4-[4-(2,4-Dimethylphenyl)-piperazin-1-yl-sulfonyl]-phenyl}-2-[2-(4-methoxy-pyridin-2-yl)ethyl]-3H-imidazo[4,5-b]pyridine] showed a melting point of 208 to 209 °C. Further, the IC50 in data set [1] is 0.126 µM.

What is called melting point is the temperature of the solid-liquid transition.
